Consider eleven compounds from patent US8735556B2, “Sensitive and generic antibodies and multiple applications” (Randox Laboratories Limited, priority 2011, dated 2014).

The subject of data set [1] is antiserum raised to Immunogen II. In words: Competitive ELISA, antibody characterisation. Conditions: for % Cross-reactivity: CR based on 100% for carbamazepine, IC50 carbamazepine/IC50 CR x 100; for IC50: antiserum raised to Immunogen II, detecting agent derived from Hapten-A, competitive assay format. Type of data set: binding, sheep. The procedure:
The antibody titre is evaluated by coating a microtitre plate (Thermo Fisher Scientific NUNC, 468667) with antibody (125 μl/well) in coating buffer (10 mM Tris pH 8.5) at 37° C. for 2 hours. The plate is then washed 4 times over 10 minutes with working strength TBST. 50 μl of sample/standard (Carbamazepine, Sigma C4024) is added to the appropriate wells in triplicate, followed by 75 μl of hapten-HRP conjugate and incubated at 25° C. for 1 hour. The plate is then washed and 125 μl of TMB (Randox, 4380-15) added to each well and left at room temperature for 20 mins in the dark. The reaction is stopped using 125 μl of 0.2M sulphuric acid. The absorbances are read at 450 nm with an ELISA microplate reader (BIO-TEK Instruments, Elx800) and the means calculated. Antibody sensitivity can then be determined. […] The immunogenic mixture (1 ml) was administered to adult sheep on a monthly basis to provide target-specific polyclonal antisera. IgG was extracted from the antisera via caprylic acid/ammonium sulphate precipitation of immunoglobulin. A microtitre plate (Thermo Fisher Scientific NUNC, 468667) was coated with antibody (125 μl/well) in coating buffer (10 mM Tris pH 8.5) at 37° C. for 2 hours. […] The plate was then washed and 125 μl of TMB (Randox, 4380-15) was added to each well and left at room temperature for 20 mins in the dark. The reaction was stopped using 125 μl of 0.2M sulphuric acid. The absorbances were read at 450 nm with an ELISA microplate reader (BIO-TEK Instruments, Elx800) and the means calculated. Antibody specificity and sensitivity were then determined. […] The results of this study are presented in Table 2, cross-reactivity being calculated according to the following formula: % CR=IC50. carbamazepine/IC50. CR×100 […] CR is the concentration of carbamazepine/metabolites/structurally-related molecules that causes 50% displacement of signal.

Data set [2] relates to Roche Diagnostics Online TDM carbamazepine immunoassay. The note with it: at 6 μg/ml of carbamazepine; cited from earlier work.
In data set [3] the test system is monoclonal antibody of CBZ immunoassay. Conditions: cited from earlier work.
The test system of data set [4] is Beckman Coulter (BC) carbamazepine immunoassay. The note with it: Beckman Coulter BC analyzers; cited from earlier work.
For data set [5] the following is noted: cited from earlier work.
For data set [6], the system named is Siemens ADVIA carbamazepine immunoassay. Conditions: cited from earlier work.
Data set [7] relates to Abbott Diagnostics Axsym carbamazepine immunoassay. The note with it: cited from earlier work.
The conditions of data set [8]: cited from earlier work. The source holds these as a separate data set.

≈ marks a conversion by molar mass, not a printed value. Like-named read-outs stand apart in the source and are kept apart here.

With `NC(=O)N1c2ccccc2CC(=O)c2ccccc21` [Oxcarbazepine, oxcarbazepine], in data set [1], the “% Cross-reactivity” value came to 299.00%. This compound displayed an IC50 in data set [1] of 0.714 ng/mL (≈ 0.00283 µM). The Cross-reactivity in data set [2] was 1.0%; in data set [3], “negligible”.
In the case of `NC(=O)N1c2ccccc2CC(O)c2ccccc21` (centres unmarked) [Hapten 10-OH-CBZ, 10,11-dihydro-10-hydroxycarbazepine], in data set [1], the “% Cross-reactivity” value is 67.40%. In data set [1], this compound had an IC50 of 3.167 ng/mL (≈ 0.0125 µM). The Cross-reactivity in data set [2] was 1.2%; in data set [3] it was “negligible”.
Consider `CN1C(=O)CN=C(c2ccccc2)c2cc(Cl)ccc21` [Diazepam], for which the Cross-reactivity in data set [4] is 4.8%.
Turning to `NC(=O)N1c2ccccc2C(O)C(O)c2ccccc21` (centres unmarked) [10,11-diOH-CBZ, 10,11-dihydro-10,11-dihydroxycarbamazepine], in data set [1], the “% Cross-reactivity” value turned out to be 14.00% and the IC50 was 15.269 ng/mL (≈ 0.0565 µM). In data set [3], the Cross-reactivity result is on record as “negligible”. The “major urinary excretory product” value in data set [5] (of CBZ, urine) is reported as 80%.
With `CN(C)CCC=C1c2ccccc2CCc2ccccc21` [Amitriptyline, amitriptyline], the Cross-reactivity is given as 5.2% in data set [6] and 18.6% in data set [4]. Besides, the “% Cross-reactivity” value in data set [1] was <<1.10%. Besides, the IC50 in data set [1] is >>200 ng/ml.
In the case of `c1ccc2c(c1)Nc1ccccc1S2` [Phenothiazine], the Cross-reactivity in data set [4] is given as 8.6%.
In the case of `NC(=O)N1c2ccccc2C2OC2c2ccccc21` (centres unmarked) [CBZ-E, carbamazepine-10,11-epoxide], the Cross-reactivity is listed as 21.8% in data set [6], “≦83.0%” in data set [7], 7.4% in data set [4] and 14.0% in data set [2]. The “% Cross-reactivity” value in data set [1] is recorded as 68.30%. The compound further yielded an IC50 in data set [1] of 3.125 ng/mL (≈ 0.0124 µM).
As for `CNCCCN1c2ccccc2CCc2ccccc21` [Desipramine], the Cross-reactivity result in data set [7] was “≦540.0%”.
With `NC(=O)N1c2ccccc2C=Cc2ccccc21` [CBZ, carbamazepine], the toxic value in data set [8] (free carbamazepine) was over 4.00 µg/mL. Also, in data set [8] (total carbamazepine), the toxic value entry is recorded as “greater than 12.00 μg/ml”. In data set [1], the “% Cross-reactivity” value turned out to be 100.00% and the IC50 is 2.135 ng/mL (≈ 0.00904 µM). In data set [5] (in patients), the half-life was 18 to 65 h.
Take `CN(C)CCCN1c2ccccc2CCc2ccccc21` [Imipramine, imipramine]: in data set [1], the “% Cross-reactivity” value was <<1.10% and the IC50 is reported as >>200 ng/ml. The Cross-reactivity in data set [4] is listed as 5.6%.
On to `CNCCC=C1c2ccccc2CCc2ccccc21` [Nortryptyline], for which the Cross-reactivity is listed as 5.2% in data set [6] and 17.2% in data set [4].
